US8241607B2, “Use of fructose-based compounds for the diagnosis of cancer” (priority 2005, dated 2012)

Key:
[1] = Serum fructose in normal volunteers after two cans of soda (fructose dehydrogenase assay); format: in vivo, human; conditions: 3 normal volunteers
Description: FIG. 37 depicts fasting serum fructose and glucose levels in patients with pancreatic cancer and in normal volunteers in accordance with an embodiment of the present invention. (a) Fasting serum fructose and glucose levels in 6 patients with pancreatic cancer on the morning of resection. (b) Serum fructose, and glucose levels (Mean±SEM) in 3 normal volunteers after a 10 h fast, followed by ingestion of two cans of soda, containing 76 g of carbohydrate in the form of high fructose corn syrup (55% fructose, 45% glucose).
The normal circulating concentrations of fructose are unknown. […] Briefly, aliquots (20 μl) of fructose standards (0.1, 0.5, 1, 2, 4, 6, and 8 mM) or unknown serum samples were mixed with 5 μl of a stock solution (125 U/ml) of the enzyme fructose dehydrogenase (Sigma) in 175 μl citric acid (0.05 M) phosphate (0.09 M) buffer (pH 4.5), and 20 μl of 3-(4,5-dimethylthiazol-2yl)-2,5-diphenyltetrazolium bromide (MTT), and phenazine methosulfate (Promega), incubated for 30 minutes, after which absorbance at 570 nm was recorded in a 96-well spectrophotometer. […] As the first analysis, in accordance with institutional review board guidelines, the inventors obtained 32 serum samples randomly selected from anonymous inpatients at Cedars-Sinai Medical Center. The inventors also measured glucose in these same samples using standard glucose oxidase based methods. […]

PANC-1 cells = experiment: [1,2-13C2] stable isotope-based dynamic metabolic profiling in PANC-1 cells; format: cell-based; conditions: 72 h
Description: FIG. 28 depicts the metabolism of fructose and glucose in pancreatic cancer cells in accordance with an embodiment of the present invention. Lactate generation from glycolysis (a), and hexose oxidation in the pentose and tricarboxylic acid cycles (b) following treatment of PANC-1 cells with 2 mM glucose, 5.5 mM glucose, and 5.5 mM fructose for 72 h. […] In (b), the ^13C to ^12C ratio in the CO2 released from the PANC-1 cells is presented.
FIG. 29 depicts fatty acid synthesis from glucose versus fructose in accordance with an embodiment of the present invention. Fatty acid synthesis represented by (a), ^13C-labelled oleate, (b) ^13C-labelled arachidic acid, and (c) ^13C-labelled 24-carbon fatty acid fraction following treatment of PANC-1 cells with 2 mM, and 5.5 mM glucose, and 5.5 mM fructose for 72 h. For the fatty acids, the fraction of ^13C-labeled oleate, arachidic acid or 24-carbon fatty acid is expressed as percentage of total oleate, arachidic acid or 24-carbon fatty acids, respectively.
FIG. 30 depicts ribose and deoxyribose synthesis following glucose and fructose treatment in accordance with an embodiment of the present invention.
Metabolism comprises anabolic (converting small molecules into big ones) and catabolic processes (converting food into useful energy), predicts the functional state of a cell, and analyzes the levels of the end products (metabolites) of anabolism and catabolism. Metabolic profiling using stable isotope tracer technology ([1,2-^13C] sugars) allows the measurement of the changing pattern of distribution of ^13C carbons from [1,2-^13C] glucose in intracellular metabolic intermediates, and provides a simultaneous measure of carbon flow toward the pentose cycle, glycolysis, direct glucose oxidation, tricarboxylic acid (TCA) cycle and fatty acid synthesis (76,77). […] The inventors employed [1,2-^13C2] glucose, or [1,2-^13C2] fructose stable isotope-based dynamic metabolic profiling (SiDMAP, Los Angeles, US) to track and quantify changes in glucose, and fructose carbon re-distribution among major metabolic pathways in pancreatic cancer cells (Lee W N, Boros L G, Puigjaner J, Bassilian S, Lim S, Cascante M. Mass istopomer study of transketolase-transaldolase pathways of the pentose cycle with [1,2-^13C2]glucose. Am J Physiol 274:E843-51, 1998; Lee W N, Byerley L O, Bassilian S, Ajie H O, Clark I, Edmond J. Isotopomer study of lipogenesis in human hepatoma cells in culture: contribution of carbon and hydrogen atoms from glucose. Anal Biochem 226: 100-112). The principles of this methodology are outlined below in a series of schematics (FIGS. 25-27) illustrating how this technique tracked carbohydrate metabolism and the data generated. […]

O=C(CO)[C@@H](O)[C@H](O)[C@H](O)CO [fructose]
mean serum fructose levels, peak ([1]; 30 minutes after two sodas): 17 mM | serum fructose levels ([1]; for the 2 hour duration of blood sampling): greater than 5 mM | route of metabolism in the pentose phosphate shunt (PANC-1 cells; 5.5 mM 13C-labeled sugar): preferentially metabolized by TKK | fraction metabolized for fatty acid synthesis (FAS) (PANC-1 cells; 13C-labeled fructose vs glucose): comparatively less | CO2 production, fructose in comparison to glucose (PANC-1 cells; 13C-labeled sugar): 34 fold lower | lactate production, fructose in comparison to glucose (PANC-1 cells; 13C-labeled sugar): 34 fold lower
